Assay results: ChEMBL document CHEMBL5131459, “Semisynthesis and neurotrophic activity studies of novel neomajucin/majucin derivatives as neurotrophin small molecule mimetics” (Bioorg Med Chem Lett, 2022)
Activity calls are given as the source filed them. The calls are words filed in the database; no cut-off is given here.

System: PC-12
Experiment: Neuroprotective activity in […] cells assessed as induction of NGF-mediated neurite outgrowth by measuring protrusion length extension at 10 uM by methylene blue staining based light microscopic analysis
Type: functional, cell-based
Conditions: Rattus norvegicus
For `C[C@@H]1C[C@@H](OC(=O)CCc2ccc(F)cc2)[C@@]2(O)[C@@]13C[C@@H](OC(=O)[C@@H]3O)[C@@]1(O)C(=O)OC[C@@]21C`, the Activity was “Active”. In the case of `C/C=C/C=C/C(=O)O[C@]12C(=O)OC[C@@]1(C)[C@@]1(O)CC[C@@H](C)[C@]13C[C@H]2OC(=O)[C@@H]3O`, the Activity was “Active”. In the case of `C/C=C/C=C/C(=O)O[C@@H]1C[C@@H](C)[C@@]23C[C@@H](OC(=O)[C@@H]2O)[C@@]2(O)C(=O)OC[C@@]2(C)[C@@]13O`, the Activity was “Active”.

System: PC-12
Experiment: Neuroprotective activity against MPP+-induced cell injury in […] cells assessed as cell survival rate at 20 uM (reference value: 68.60 +/- 1.06 %)
Type: functional
Conditions: Rattus norvegicus, read-out: Survival
`C/C=C/C=C/C(=O)O[C@]12C(=O)OC[C@@]1(C)[C@@]1(O)CC[C@@H](C)[C@]13C[C@H]2OC(=O)[C@@H]3O` showed a viability at 20 µM of 72.5%. Compound `C/C=C/C=C/C(=O)O[C@@H]1C[C@@H](C)[C@@]23C[C@@H](OC(=O)[C@@H]2O)[C@@]2(O)C(=O)OC[C@@]2(C)[C@@]13O` has a viability at 20 µM of 68.5%.

System: PC-12
Experiment: Neuroprotective activity in […] cells assessed as induction of NGF-mediated neurite outgrowth by measuring differentiation rate of neurite-beating cells at 10 uM incubated for 72 hrs (reference value: 4.27 +/- 0.04 %)
Type: functional, Rattus norvegicus
Conditions: not given
`C[C@@H]1CC[C@@]2(O)[C@@]13C[C@@H](OC(=O)[C@@H]3O)[C@@]1(OC(=O)CCc3cccc(Br)c3)C(=O)OC[C@@]21C` showed an Activity of 5.04%. Compound `C[C@@H]1C[C@@H](O)[C@@]2(O)[C@@]13C[C@@H](OC(=O)[C@@H]3O)[C@@]1(O)C(=O)OC[C@@]21C` has an Activity of 6.25%. `C/C=C/C=C/C(=O)O[C@@H]1C[C@@H](C)[C@@]23C[C@@H](OC(=O)[C@@H]2O)[C@@]2(OC(=O)/C=C/C=C/C)C(=O)OC[C@@]2(C)[C@@]13O` gave an Activity of 5.13%. `C[C@@H]1CC[C@@]2(O)[C@@]13C[C@@H](OC(=O)[C@@H]3O)[C@@]1(OC(=O)Cc3ccc4ccccc4c3)C(=O)OC[C@@]21C` showed an Activity of 5.55%. `C[C@@H]1CC[C@@]2(O)[C@@]13C[C@@H](OC(=O)[C@@H]3O)[C@@]1(OC(=O)Cc3ccc(Cl)cc3)C(=O)OC[C@@]21C` gave an Activity of 5.52%. Compound `C[C@@H]1C[C@@H](OC(=O)CCc2ccc(Cl)cc2)[C@@]2(O)[C@@]13C[C@@H](OC(=O)[C@@H]3O)[C@@]1(O)C(=O)OC[C@@]21C` has an Activity of 5.03%. In the case of `C[C@@H]1CC[C@@]2(O)[C@@]13C[C@@H](OC(=O)[C@@H]3O)[C@@]1(OC(=O)Cc3cccc(Cl)c3)C(=O)OC[C@@]21C`, the Activity was 5.53%. For `C[C@@H]1C[C@@H](OC(=O)CCc2ccc(Br)cc2)[C@@]2(O)[C@@]13C[C@@H](OC(=O)[C@@H]3O)[C@@]1(O)C(=O)OC[C@@]21C`, the Activity was 10.02%. For `C[C@@H]1C[C@@H](OC(=O)CCc2cccc(F)c2)[C@@]2(O)[C@@]13C[C@@H](OC(=O)[C@@H]3O)[C@@]1(OC(=O)CCc3cccc(F)c3)C(=O)OC[C@@]21C`, the Activity was 4.93%. `C[C@@H]1CC[C@@]2(O)[C@@]13C[C@@H](OC(=O)[C@@H]3O)[C@@]1(OC(=O)CCc3cccc(F)c3)C(=O)OC[C@@]21C` gave an Activity of 5.7%. `C[C@@H]1C[C@@H](OC(=O)CCC(=O)c2ccccc2)[C@@]2(O)[C@@]13C[C@@H](OC(=O)[C@@H]3O)[C@@]1(OC(=O)CCC(=O)c3ccccc3)C(=O)OC[C@@]21C` gave an Activity of 5.25%. `C[C@@H]1C[C@@H](OC(=O)CCc2cccc(Br)c2)[C@@]2(O)[C@@]13C[C@@H](OC(=O)[C@@H]3O)[C@@]1(OC(=O)CCc3cccc(Br)c3)C(=O)OC[C@@]21C` showed an Activity of 5.1%. Compound `C[C@@H]1C[C@@H](OC(=O)CCc2ccccc2)[C@@]2(O)[C@@]13C[C@@H](OC(=O)[C@@H]3O)[C@@]1(O)C(=O)OC[C@@]21C` has an Activity of 9.67%. In the case of `C[C@@H]1C[C@@H](OC(=O)CCc2ccc(F)cc2)[C@@]2(O)[C@@]13C[C@@H](OC(=O)[C@@H]3O)[C@@]1(O)C(=O)OC[C@@]21C`, the Activity was 10.96%. For `C[C@@H]1CC[C@@]2(O)[C@@]13C[C@@H](OC(=O)[C@@H]3O)[C@@]1(OC(=O)CCC(=O)c3ccccc3)C(=O)OC[C@@]21C`, the Activity was 8.79%. `C[C@@H]1C[C@@H](OC(=O)CCc2ccc(Cl)cc2)[C@@]2(O)[C@@]13C[C@@H](OC(=O)[C@@H]3O)[C@@]1(OC(=O)CCc3ccc(Cl)cc3)C(=O)OC[C@@]21C` gave an Activity of 5.21%. `C[C@@H]1C[C@@H](OC(=O)CCc2ccc(Br)cc2)[C@@]2(O)[C@@]13C[C@@H](OC(=O)[C@@H]3O)[C@@]1(OC(=O)CCc3ccc(Br)cc3)C(=O)OC[C@@]21C` gave an Activity of 8.73%. Work on `C/C=C/C=C/C(=O)O[C@]12C(=O)OC[C@@]1(C)[C@@]1(O)CC[C@@H](C)[C@]13C[C@H]2OC(=O)[C@@H]3O` yielded an Activity of 11.02%. `C[C@@H]1C[C@@H](OC(=O)CCc2ccccc2)[C@@]2(O)[C@@]13C[C@@H](OC(=O)[C@@H]3O)[C@@]1(OC(=O)CCc3ccccc3)C(=O)OC[C@@]21C` gave an Activity of 5.47%. For `C[C@@H]1CC[C@@]2(O)[C@@]13C[C@@H](OC(=O)[C@@H]3O)[C@@]1(OC(=O)CCc3ccc(F)cc3)C(=O)OC[C@@]21C`, the Activity was 8.99%. For `COc1ccc(CC(=O)O[C@]23C(=O)OC[C@@]2(C)[C@@]2(O)CC[C@@H](C)[C@]24C[C@H]3OC(=O)[C@@H]4O)cc1`, the Activity was 5.27%. `C[C@@H]1CC[C@@]2(O)[C@@]13C[C@@H](OC(=O)[C@@H]3O)[C@@]1(OC(=O)CCc3ccc(Br)cc3)C(=O)OC[C@@]21C` gave an Activity of 6.85%. Compound `C[C@@H]1C[C@@H](OC(=O)CCc2ccc(F)cc2)[C@@]2(O)[C@@]13C[C@@H](OC(=O)[C@@H]3O)[C@@]1(OC(=O)CCc3ccc(F)cc3)C(=O)OC[C@@]21C` has an Activity of 9.41%. Compound `C[C@@H]1CC[C@@]2(O)[C@@]13C[C@@H](OC(=O)[C@@H]3O)[C@@]1(OC(=O)Cc3ccc(F)cc3)C(=O)OC[C@@]21C` has an Activity of 5.85%. In the case of `C[C@@H]1C[C@@H](OC(=O)CCc2cccc(F)c2)[C@@]2(O)[C@@]13C[C@@H](OC(=O)[C@@H]3O)[C@@]1(O)C(=O)OC[C@@]21C`, the Activity was 5.78%. Work on `C[C@@H]1CC[C@@]2(O)[C@@]13C[C@@H](OC(=O)[C@@H]3O)[C@@]1(OC(=O)CCc3ccc(Cl)cc3)C(=O)OC[C@@]21C` yielded an Activity of 6.05%. `C[C@@H]1C[C@@H](OC(=O)CCc2cccc(Cl)c2)[C@@]2(O)[C@@]13C[C@@H](OC(=O)[C@@H]3O)[C@@]1(O)C(=O)OC[C@@]21C` showed an Activity of 4.69%. With `COc1cc(CC(=O)O[C@]23C(=O)OC[C@@]2(C)[C@@]2(O)CC[C@@H](C)[C@]24C[C@H]3OC(=O)[C@@H]4O)cc(OC)c1OC` the Activity was 6.06%. Work on `C[C@@H]1C[C@@H](OC(=O)CCc2cccc(Br)c2)[C@@]2(O)[C@@]13C[C@@H](OC(=O)[C@@H]3O)[C@@]1(O)C(=O)OC[C@@]21C` yielded an Activity of 5.56%. `C[C@@H]1CC[C@@]2(O)[C@@]13C[C@@H](OC(=O)[C@@H]3O)[C@@]1(OC(=O)Cc3cccc(Br)c3)C(=O)OC[C@@]21C` showed an Activity of 6.91%. For `C[C@@H]1CC[C@@]2(O)[C@@]13C[C@@H](OC(=O)[C@@H]3O)[C@@]1(OC(=O)CCc3ccccc3)C(=O)OC[C@@]21C`, the Activity was 10.04%. In the case of `C[C@@H]1CC[C@@]2(O)[C@@]13C[C@@H](OC(=O)[C@@H]3O)[C@@]1(OC(=O)CCCBr)C(=O)OC[C@@]21C`, the Activity was 6.04%. Compound `C[C@@H]1CC[C@@]2(O)[C@@]13C[C@@H](OC(=O)[C@@H]3O)[C@@]1(OC(=O)CCc3cccc(Cl)c3)C(=O)OC[C@@]21C` has an Activity of 4.88%. `C/C=C/C=C/C(=O)O[C@@H]1C[C@@H](C)[C@@]23C[C@@H](OC(=O)[C@@H]2O)[C@@]2(O)C(=O)OC[C@@]2(C)[C@@]13O` showed an Activity of 11.83%. With `C[C@@H]1CC[C@@]2(O)[C@@]13C[C@@H](OC(=O)[C@@H]3O)[C@@]1(OC(=O)Cc3cccc(F)c3)C(=O)OC[C@@]21C` the Activity was 5.9%. With `C[C@@H]1C[C@@H](OC(=O)CCc2cccc(Cl)c2)[C@@]2(O)[C@@]13C[C@@H](OC(=O)[C@@H]3O)[C@@]1(OC(=O)CCc3cccc(Cl)c3)C(=O)OC[C@@]21C` the Activity was 4.54%. For `C[C@@H]1CC[C@@]2(O)[C@@]13C[C@@H](OC(=O)[C@@H]3O)[C@@]1(OC(=O)Cc3ccc(Br)cc3)C(=O)OC[C@@]21C`, the Activity was 4.9%. For `C[C@@H]1CC[C@@]2(O)[C@@]13C[C@@H](OC(=O)[C@@H]3O)[C@@]1(OC(=O)/C=C/c3ccccc3)C(=O)OC[C@@]21C`, the Activity was 5.38%. For `C[C@@H]1CC[C@@]2(O)[C@@]13C[C@@H](OC(=O)[C@@H]3O)[C@@]1(OC(=O)CCCCBr)C(=O)OC[C@@]21C`, the Activity was 5.28%. With `C[C@@H]1C[C@@H](OC(=O)CCC(=O)c2ccccc2)[C@@]2(O)[C@@]13C[C@@H](OC(=O)[C@@H]3O)[C@@]1(O)C(=O)OC[C@@]21C` the Activity was 6.42%. With `C[C@@H]1CC[C@@]2(O)[C@@]13C[C@@H](OC(=O)[C@@H]3O)[C@@]1(O)C(=O)OC[C@@]21C` the Activity was 8.76%.

System: not listed separately
Experiment: Cytotoxicity against […] cells assessed as inhibition of cell growth by CCK-8 assay
Type: toxicity, cell-based
Conditions: rat
`C/C=C/C=C/C(=O)O[C@]12C(=O)OC[C@@]1(C)[C@@]1(O)CC[C@@H](C)[C@]13C[C@H]2OC(=O)[C@@H]3O` showed an IC50 greater than 512 µg/mL. `C/C=C/C=C/C(=O)O[C@@H]1C[C@@H](C)[C@@]23C[C@@H](OC(=O)[C@@H]2O)[C@@]2(O)C(=O)OC[C@@]2(C)[C@@]13O` showed an IC50 greater than 512 µg/mL.
